ChEMBL document CHEMBL1201862, “PubChem BioAssay data set” (2004)
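Step 1: Grow cells in 96-well plates. Step 2: Expose to compound for 48 hours at 5 concentrations. Step 3: Interpolate endpoints linearly; if unreached, use highest concentration. Abbreviation: GI50, concentration required for 50% inhibition of growth.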 Activity calls are given as the source filed them. Rule as the data show it: active = GI50 up to about 1.1 µM and inactive = higher.

Key:
Experiment in all cases: NCI anticancer screen, dose series, 48 h
EKVX = test system: EKVX
HCT-116 = test system: HCT-116
A549 = test system: A549
IGROV-1 = test system: IGROV-1
HL-60 = test system: HL-60
SF-539 = test system: SF-539
MOLT-4 = test system: MOLT-4
OVCAR-3 = test system: OVCAR-3
K562 = test system: K562
M19-MEL = test system: M19-MEL
TK-10 = test system: TK-10
OVCAR-8 = test system: OVCAR-8
SK-MEL-5 = test system: SK-MEL-5
M14 = test system: M14
HOP-18 = test system: HOP-18
NCI-H226 = test system: NCI-H226
DLD-1 = test system: DLD-1
OVCAR-4 = test system: OVCAR-4
UO-31 = test system: UO-31
UACC-257 = test system: UACC-257
CAKI-1 = test system: CAKI-1
SK-OV-3 = test system: SK-OV-3
COLO 205 = test system: COLO 205
CCRF-CEM = test system: CCRF-CEM
KM12 = test system: KM12
UACC-62 = test system: UACC-62
HOP-62 = test system: HOP-62
HT-29 = test system: HT-29
SK-MEL-2 = test system: SK-MEL-2
HOP-92 = test system: HOP-92
786-0 = test system: 786-0
Malme-3M = test system: Malme-3M
DMS-114 = test system: DMS-114
SF-295 = test system: SF-295
SNB-19 = test system: SNB-19
SNB-78 = test system: SNB-78
SW-620 = test system: SW-620
HCC 2998 = test system: HCC 2998
RPMI-8226 = test system: RPMI-8226

Measured: GI50

CSc1nc(NC2OC(COC(C)=O)C(OC(C)=O)C(OC(C)=O)C2OC(C)=O)c(/N=C(\C)C(C)=O)c(=O)[nH]1 (centres undefined)
inactive: EKVX > 100 µM | HCT-116 > 100 µM | A549 > 100 µM | IGROV-1 > 100 µM | HL-60 > 100 µM | SF-539 > 100 µM | MOLT-4 > 100 µM | OVCAR-3 > 100 µM | K562 > 100 µM | M19-MEL > 100 µM | TK-10 > 100 µM | OVCAR-8 > 100 µM | SK-MEL-5 > 100 µM | M14 > 100 µM | HOP-18 > 100 µM | NCI-H226 > 100 µM | DLD-1 79.1 µM | OVCAR-4 > 100 µM | UO-31 > 100 µM | UACC-257 > 100 µM | CAKI-1 > 100 µM | SK-OV-3 > 100 µM | COLO 205 > 100 µM | CCRF-CEM > 100 µM | KM12 > 100 µM | UACC-62 > 100 µM | HOP-62 42.5 µM | HT-29 > 100 µM | SK-MEL-2 > 100 µM | HOP-92 > 100 µM | 786-0 > 100 µM | Malme-3M > 100 µM | DMS-114 > 100 µM | SF-295 > 100 µM | SNB-19 > 100 µM | SNB-78 > 100 µM | SW-620 > 100 µM | HCC 2998 > 100 µM | RPMI-8226 > 100 µM
